Measurements from the supplement of paper PMC4862054.

Tests used:
Conditions in all cases: incubation time: 72 h
BT-474 [1] = assay: normalised viability (% of control), CellTiter-Blue; higher = more viable cells (100 = DMSO, 0 = benzethonium chloride kill control)
Procedure: (§1)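 DSRT, CellTiter-Blue viability, 72 h incubation. Signal is normalised to DMSO and benzethonium chloride controls. Value is the normalised response at dose 1.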

MDA-MB-468 [2] = assay: as above
Procedure: as §1

MDA-MB-453 [3] = assay: as above
Procedure: as §1

HCC1937 [4] = assay: as above
Procedure: as §1

BT-549 [5] = assay: as above
Procedure: as §1

HCC1599 [6] = assay: as above
Procedure: as §1

MDA-MB-231 [7] = assay: as above
Procedure: as §1

MFM-223 [8] = assay: as above
Procedure: as §1

CAL-148 [9] = assay: as above
Procedure: as §1

CAL-120 [10] = assay: as above
Procedure: as §1

CAL-51 [11] = assay: as above
Procedure: as §1

Hs578T [12] = assay: as above
Procedure: as §1

HCC1143 [13] = assay: as above
Procedure: as §1

SK-BR-3 [14] = assay: as above
Procedure: as §1

MDA-MB-436 [15] = assay: as above
Procedure: as §1

HDQ-P1 [16] = assay: as above
Procedure: as §1

DU-4475 [17] = assay: as above
Procedure: as §1

CAL-85-1 [18] = assay: as above
Procedure: as §1

BT-474 [19] = assay: normalised response (% of control), CellTiter-Glo; higher = more viable cells (100 = DMSO, 0 = benzethonium chloride kill control)
Procedure, shortened: (§2)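 Breast cancer cell lines in 20 µl suspension were added to 384-well plates containing compound at 5 concentrations, spaced in 10-fold steps across a 10,000-fold range chosen for each compound, and incubated for 72 h. CellTox Green fluorescence was read at 485/520 nm, followed by CellTiter-Glo luminescence after 10 min at room temperature. Signals on each plate were normalised so that 0.1 % DMSO equals 100 and a positive kill control equals 0. Every value in the table is the normalised signal at one concentration of the series.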

MDA-MB-468 [20] = assay: as above
Procedure, shortened: as §2

MDA-MB-453 [21] = assay: as above
Procedure, shortened: as §2

HCC1937 [22] = assay: as above
Procedure, shortened: as §2

MCF-10A = assay: as above
Procedure, shortened: as §2

BT-549 [23] = assay: as above
Procedure, shortened: as §2

HCC1599 [24] = assay: as above
Procedure, shortened: as §2

MDA-MB-231 [25] = assay: as above
Procedure, shortened: as §2

MFM-223 [26] = assay: as above
Procedure, shortened: as §2

CAL-148 [27] = assay: as above
Procedure, shortened: as §2

CAL-120 [28] = assay: as above
Procedure, shortened: as §2

CAL-51 [29] = assay: as above
Procedure, shortened: as §2

Hs578T [30] = assay: as above
Procedure, shortened: as §2

HCC1143 [31] = assay: as above
Procedure, shortened: as §2

SK-BR-3 [32] = assay: as above
Procedure, shortened: as §2

MDA-MB-436 [33] = assay: as above
Procedure, shortened: as §2

HDQ-P1 [34] = assay: as above
Procedure, shortened: as §2

DU-4475 [35] = assay: as above
Procedure, shortened: as §2

CAL-85-1 [36] = assay: as above
Procedure, shortened: as §2

Row | Compound | normalised viability (BT-474 [1]) [%] | normalised viability (MDA-MB-468 [2]) [%] | normalised viability (MDA-MB-453 [3]) [%] | normalised viability (HCC1937 [4]) [%] | normalised viability (BT-549 [5]) [%] | normalised viability (HCC1599 [6]) [%] | normalised viability (MDA-MB-231 [7]) [%] | normalised viability (MFM-223 [8]) [%] | normalised viability (CAL-148 [9]) [%] | normalised viability (CAL-120 [10]) [%] | normalised viability (CAL-51 [11]) [%] | normalised viability (Hs578T [12]) [%] | normalised viability (HCC1143 [13]) [%] | normalised viability (SK-BR-3 [14]) [%] | normalised viability (MDA-MB-436 [15]) [%] | normalised viability (HDQ-P1 [16]) [%] | normalised viability (DU-4475 [17]) [%] | normalised viability (CAL-85-1 [18]) [%] | normalised response (BT-474 [19]) [%] | normalised response (MDA-MB-468 [20]) [%] | normalised response (MDA-MB-453 [21]) [%] | normalised response (HCC1937 [22]) [%] | normalised response (MCF-10A) [%] | normalised response (BT-549 [23]) [%] | normalised response (HCC1599 [24]) [%] | normalised response (MDA-MB-231 [25]) [%] | normalised response (MFM-223 [26]) [%] | normalised response (CAL-148 [27]) [%] | normalised response (CAL-120 [28]) [%] | normalised response (CAL-51 [29]) [%] | normalised response (Hs578T [30]) [%] | normalised response (HCC1143 [31]) [%] | normalised response (SK-BR-3 [32]) [%] | normalised response (MDA-MB-436 [33]) [%] | normalised response (HDQ-P1 [34]) [%] | normalised response (DU-4475 [35]) [%] | normalised response (CAL-85-1 [36]) [%]
1 | OC[C@H]1O[C@@H](n2cnc3c2N=CNC[C@H]3O)C[C@@H]1O [Pentostatin] (1 nM) | 82.4 | 105 | 110 | 81.8 | 91.7 | 114 | 96.6 | 93.2 | 118 | 114 | 89.3 | 109 | 96.9 | 86.8 | 99 | 108 | 102 | 99.5 | 98.7 | 101 | 107 | 100 | 107 | 93.8 | 121 | 98.8 | 99.8 | 104 | 96.7 | 111 | 98.4 | 103 | 108 | 83.4 | 100 | 103 | 94.8
2 | N#CC[C@H](C1CCCC1)n1cc(-c2ncnc3[nH]ccc23)cn1 [Ruxolitinib] (1 nM) | 98.2 | 96.6 | 101 | 102 | 89.9 | 101 | 82.5 | 98.8 | 94.5 | 106 | 89.4 | 102 | 101 | 101 | 96.9 | 85.7 | 104 | 114 | 96.8 | 101 | 94.4 | 92.8 | 82 | 102 | 93.5 | 102 | 90.1 | 92.8 | 93.8 | 120 | 95.8 | 93.1 | 83.5 | 86.7 | 93.5 | 91.9 | 101
3 | C=CC[C@@H]1/C=C(\C)C[C@H](C)C[C@H](OC)[C@H]2O[C@@](O)(C(=O)C(=O)N3CCCC[C@H]3C(=O)O[C@H](/C(C)=C/[C@@H]3CC[C@@H](O)[C@H](OC)C3)[C@H](C)[C@@H](O)CC1=O)[C@H](C)C[C@@H]2OC [Tacrolimus] (1 nM) | 71 | 110 | 107 | 102 | 109 | 99.3 | 102 | 116 | 110 | 111 | 105 | 106 | 109 | 98.2 | 119 | 114 | 98.5 | 98.6 | 101 | 98.7 | 110 | 98.8 | 106 | 96.6 | 103 | 99.3 | 98.5 | 103 | 98 | 93.1 | 99.1 | 93.9 | 109 | 103 | 118 | 102 | 97.8
4 | C=CCNC1=C2C[C@@H](C)C[C@H](OC)[C@H](O)[C@@H](C)/C=C(\C)[C@H](OC(N)=O)[C@@H](OC)/C=C\C=C(/C)C(=O)NC(=CC1=O)C2=O [Tanespimycin] (1 nM) | 97.3 | 103 | 108 | 86.4 | 113 | 94.7 | 98.2 | 90.8 | 115 | 77.1 | 115 | 101 | 87.4 | 93 | 110 | 105 | 118 | 92.6 | 91.9 | 107 | 104 | 94.7 | 99.1 | 105 | 102 | 98.9 | 94 | 92.6 | 92.5 | 104 | 104 | 95.8 | 96.8 | 86.8 | 99.4 | 99 | 107
5 | C[C@]1(c2nc3c(C(N)=O)cccc3[nH]2)CCCN1 [Veliparib] (1 nM) | 89.8 | 97.7 | 93.3 | 77.1 | 112 | 83.5 | 94.3 | 94.1 | 101 | 68.6 | 112 | 94.8 | 79.1 | 96.9 | 93.7 | 75.1 | 99 | 78.4 | 107 | 111 | 109 | 96.8 | 97 | 104 | 96.4 | 102 | 101 | 103 | 97.3 | 92.2 | 101 | 101 | 102 | 91.4 | 101 | 106 | 111
6 | CC[C@]1(O)C[C@@H]2CN(CCc3c([nH]c4ccccc34)[C@@](C(=O)OC)(c3cc4c(cc3OC)N(C)[C@H]3[C@@](O)(C(=O)OC)[C@H](OC(C)=O)[C@]5(CC)C=CCN6CC[C@]43[C@@H]65)C2)C1 [Vinblastine] (0.1 nM) | 87.9 | 98.8 | 98.5 | 97.1 | 96.6 | 90.7 | 83.1 | 90 | 92.5 | 82.1 | 114 | 103 | 78.6 | 85.8 | 103 | 102 | 104 | 85.8 | 96.2 | 98.8 | 103 | 93.9 | 101 | 102 | 106 | 94.9 | 93.1 | 96.6 | 95.9 | 103 | 99.5 | 99 | 100 | 95.8 | 99.4 | 101 | 97.4
7 | CS(=O)(=O)c1ccc(C(=O)Nc2ccc(Cl)c(-c3ccccn3)c2)c(Cl)c1 [Vismodegib] (1 nM) | 103 | 99.6 | 103 | 103 | 88.3 | 105 | 100 | 96 | 94.9 | 86.2 | 108 | 115 | 94.9 | 93.7 | 94.2 | 75.3 | 103 | 104 | 90.9 | 98.7 | 89.3 | 92.3 | 94 | 93.1 | 101 | 95.5 | 86.8 | 103 | 92.8 | 120 | 95.9 | 94.3 | 91.6 | 100 | 96.7 | 98.9 | 99.2
